Results from ChEMBL document CHEMBL2057206, “Symmetrical approach of spiro-pyrazolidinediones as acetyl-CoA carboxylase inhibitors” (Bioorg Med Chem Lett, 2012).
Active and inactive are the calls of the source. No cut-off for these calls is given here.

Assays:
Acetyl-CoA carboxylase 1 [1] = biological target: Acetyl-CoA carboxylase 1 (Homo sapiens, UniProt Q13085); assay: Inhibition of human ACC1 using acetyl-coA as substrate incubated for 60 mins prior to substrate addition measured after 20 mins by malachite green assay
[2] = Lipophilicity, log D of the compound by HPLC analysis at pH 7; assay type: physicochemical; conditions: buffer
Acetyl-CoA carboxylase 2 = Acetyl-CoA carboxylase 2 (Homo sapiens, UniProt O00763); assay: Inhibition of human ACC2 using acetyl-coA as substrate incubated for 60 mins prior to substrate addition measured after 20 mins by malachite green assay
[3] = Clearance in human liver microsomes assessed per mg of protein; assay type: ADME, Microsome; conditions: read-out: CLH
[4] = Inhibition of rat ACC2
Acetyl-CoA carboxylase 1 [5] = biological target: Acetyl-CoA carboxylase 1 (Rattus norvegicus, UniProt P11497); assay: Inhibition of rat ACC1
Rattus norvegicus [6] = assay: Antidyslipidemic activity in Wistar fatty rat assessed as reduction in respiratory quoteint at 1 mg/kg, po after 3 hrs; assay type: functional, organism-based; set-up: dose 1 mg/kg
Rattus norvegicus [7] = assay: Antidyslipidemic activity in po dosed Wistar fatty rat assessed as reduction in respiratory quoteint after 3 hrs; assay type: functional, organism-based

Chain of Acetyl-CoA carboxylase 2 (O00763 whole entry): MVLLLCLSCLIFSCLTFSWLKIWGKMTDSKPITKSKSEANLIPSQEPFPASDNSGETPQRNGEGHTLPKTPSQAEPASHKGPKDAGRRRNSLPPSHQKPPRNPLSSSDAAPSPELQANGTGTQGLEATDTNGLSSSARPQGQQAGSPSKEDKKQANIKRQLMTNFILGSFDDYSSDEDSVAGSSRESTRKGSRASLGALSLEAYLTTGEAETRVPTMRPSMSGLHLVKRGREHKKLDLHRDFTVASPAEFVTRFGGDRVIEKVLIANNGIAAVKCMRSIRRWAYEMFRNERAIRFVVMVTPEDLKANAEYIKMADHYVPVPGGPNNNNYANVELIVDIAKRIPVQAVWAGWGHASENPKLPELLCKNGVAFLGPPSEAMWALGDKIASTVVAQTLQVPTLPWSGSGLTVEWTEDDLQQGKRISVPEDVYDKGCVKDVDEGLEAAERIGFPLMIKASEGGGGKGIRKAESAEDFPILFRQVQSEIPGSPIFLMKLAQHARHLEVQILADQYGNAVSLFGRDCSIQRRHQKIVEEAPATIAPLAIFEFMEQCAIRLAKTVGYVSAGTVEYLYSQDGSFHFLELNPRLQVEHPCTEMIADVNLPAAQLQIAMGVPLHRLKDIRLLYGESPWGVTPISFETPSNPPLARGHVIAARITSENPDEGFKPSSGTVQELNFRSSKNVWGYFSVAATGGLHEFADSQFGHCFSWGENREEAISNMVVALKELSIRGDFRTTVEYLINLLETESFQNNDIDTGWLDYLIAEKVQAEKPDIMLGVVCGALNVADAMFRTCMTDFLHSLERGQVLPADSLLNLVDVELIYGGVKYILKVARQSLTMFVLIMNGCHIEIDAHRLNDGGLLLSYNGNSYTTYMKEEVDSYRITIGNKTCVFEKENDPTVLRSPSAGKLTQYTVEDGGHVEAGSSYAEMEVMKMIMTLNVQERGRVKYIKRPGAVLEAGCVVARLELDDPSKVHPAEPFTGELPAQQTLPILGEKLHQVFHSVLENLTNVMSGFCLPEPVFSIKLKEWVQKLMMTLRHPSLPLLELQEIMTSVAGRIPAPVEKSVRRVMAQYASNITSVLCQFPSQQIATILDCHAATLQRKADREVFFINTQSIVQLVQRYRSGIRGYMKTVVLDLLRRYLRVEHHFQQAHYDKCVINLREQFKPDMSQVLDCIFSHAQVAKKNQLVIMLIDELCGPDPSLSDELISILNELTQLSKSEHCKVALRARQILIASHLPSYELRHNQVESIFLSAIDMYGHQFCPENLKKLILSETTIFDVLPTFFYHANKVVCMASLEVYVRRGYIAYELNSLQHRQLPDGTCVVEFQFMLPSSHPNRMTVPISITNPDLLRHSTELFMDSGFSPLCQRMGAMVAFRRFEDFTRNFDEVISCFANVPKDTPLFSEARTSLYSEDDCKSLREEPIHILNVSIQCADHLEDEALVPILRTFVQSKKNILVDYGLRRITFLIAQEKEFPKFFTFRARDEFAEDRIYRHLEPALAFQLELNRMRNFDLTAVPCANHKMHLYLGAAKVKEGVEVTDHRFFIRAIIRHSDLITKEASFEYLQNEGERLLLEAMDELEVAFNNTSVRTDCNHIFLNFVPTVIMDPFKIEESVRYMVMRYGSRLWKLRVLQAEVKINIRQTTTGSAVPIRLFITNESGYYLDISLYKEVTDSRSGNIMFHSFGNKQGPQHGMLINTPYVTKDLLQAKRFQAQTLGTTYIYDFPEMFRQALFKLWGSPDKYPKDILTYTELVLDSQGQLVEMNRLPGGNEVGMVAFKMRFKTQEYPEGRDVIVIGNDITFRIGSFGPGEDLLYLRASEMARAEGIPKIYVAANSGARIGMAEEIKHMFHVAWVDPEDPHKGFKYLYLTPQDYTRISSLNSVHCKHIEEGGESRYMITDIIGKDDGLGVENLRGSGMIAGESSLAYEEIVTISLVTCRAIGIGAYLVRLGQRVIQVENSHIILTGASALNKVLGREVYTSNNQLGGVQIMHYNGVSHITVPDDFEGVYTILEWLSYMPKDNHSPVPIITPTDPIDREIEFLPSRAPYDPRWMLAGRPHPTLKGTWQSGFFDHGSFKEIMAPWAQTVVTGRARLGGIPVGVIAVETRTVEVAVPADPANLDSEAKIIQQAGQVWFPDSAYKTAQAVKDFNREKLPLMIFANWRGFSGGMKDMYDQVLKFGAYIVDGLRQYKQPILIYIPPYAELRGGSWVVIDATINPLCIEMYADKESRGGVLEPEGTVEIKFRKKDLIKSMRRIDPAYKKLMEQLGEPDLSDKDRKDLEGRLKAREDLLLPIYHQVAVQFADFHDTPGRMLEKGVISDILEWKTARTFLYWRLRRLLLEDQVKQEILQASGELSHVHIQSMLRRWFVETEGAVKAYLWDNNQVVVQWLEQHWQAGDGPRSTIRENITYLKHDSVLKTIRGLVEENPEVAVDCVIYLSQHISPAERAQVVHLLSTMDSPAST

CCNC(=O)Nc1sc2ccccc2c1C(=O)N1CCC(N2CCCC3(C2)C(=O)N2CCCCN2C3=O)CC1
IC50 (Acetyl-CoA carboxylase 1 [1]): 130 nM | logD [2]: 2.45 | IC50 (Acetyl-CoA carboxylase 2): 23 nM | microsomal CLint [3]: 18 µL/min/mg

COc1cccc2c(C(=O)N3CCC(N4CCCC5(C4)C(=O)N4CCCCN4C5=O)CC3)c(NC(N)=O)sc12
IC50 (Acetyl-CoA carboxylase 1 [1]): 22 nM | logD [2]: 1.76 | IC50 (Acetyl-CoA carboxylase 2): 5.9 nM | microsomal CLint [3]: 15 µL/min/mg

CCNC(=O)Nc1sc2c(OC)cccc2c1C(=O)N1CCC(N2CCCC3(C2)C(=O)N2CCCCN2C3=O)CC1
IC50 [4]: 13 nM | IC50 (Acetyl-CoA carboxylase 1 [5]): 28 nM | IC50 (Acetyl-CoA carboxylase 1 [1]): 21 nM | logD [2]: 2.33 | Activity (Rattus norvegicus [6]): Active | IC50 (Acetyl-CoA carboxylase 2): 4.9 nM | microsomal CLint [3]: 35 µL/min/mg | Activity (Rattus norvegicus [7]): Dose-dependent effect

CCNC(=O)Nc1sc2ccccc2c1C(=O)N1CCC(N2CCCC3(C2)C(=O)N(C)N(C)C3=O)CC1
IC50 (Acetyl-CoA carboxylase 1 [1]): 120 nM | logD [2]: 2.03 | IC50 (Acetyl-CoA carboxylase 2): 20 nM | microsomal CLint [3]: 12 µL/min/mg

CCNC(=O)Nc1sc2ccccc2c1C(=O)N1CCC(N2CCCC3(C2)C(=O)N2CCCCCCN2C3=O)CC1
IC50 (Acetyl-CoA carboxylase 1 [1]): 22 nM | logD [2]: 2.73 | IC50 (Acetyl-CoA carboxylase 2): 5.1 nM | microsomal CLint [3]: 200 µL/min/mg

CCN1C(=O)C2(CCCN(C3CCN(C(=O)c4c(NC(=O)NC)sc5ccccc45)CC3)C2)C(=O)N1CC
IC50 (Acetyl-CoA carboxylase 1 [1]): 41 nM | logD [2]: 2.33 | IC50 (Acetyl-CoA carboxylase 2): 8.1 nM | microsomal CLint [3]: 120 µL/min/mg

CNC(=O)Nc1sc2ccccc2c1C(=O)N1CCC(N2CCCC3(C2)C(=O)N2CCCCCN2C3=O)CC1
IC50 (Acetyl-CoA carboxylase 1 [1]): 48 nM | logD [2]: 2.14 | IC50 (Acetyl-CoA carboxylase 2): 8.7 nM | microsomal CLint [3]: 71 µL/min/mg

CNC(=O)Nc1sc2c(OC)cccc2c1C(=O)N1CCC(N2CCCC3(C2)C(=O)N2CCCCN2C3=O)CC1
IC50 (Acetyl-CoA carboxylase 1 [1]): 25 nM | logD [2]: 2.08 | IC50 (Acetyl-CoA carboxylase 2): 6.1 nM | microsomal CLint [3]: 6 µL/min/mg

CCNC(=O)Nc1sc2ccccc2c1C(=O)N1CCC(N2CCCC3(C2)C(=O)N2CCCCCN2C3=O)CC1
IC50 (Acetyl-CoA carboxylase 1 [1]): 43 nM | logD [2]: 2.48 | IC50 (Acetyl-CoA carboxylase 2): 7.5 nM | microsomal CLint [3]: 100 µL/min/mg

CNC(=O)Nc1sc2ccccc2c1C(=O)N1CCC(N2CCCC3(C2)C(=O)N2CCCCN2C3=O)CC1
IC50 (Acetyl-CoA carboxylase 1 [1]): 200 nM | logD [2]: 2.14 | IC50 (Acetyl-CoA carboxylase 2): 36 nM | microsomal CLint [3]: 12 µL/min/mg

CCNC(=O)Nc1sc2ccccc2c1C(=O)N1CCC(N2CCCC3(C2)C(=O)N2CCCN2C3=O)CC1
IC50 (Acetyl-CoA carboxylase 1 [1]): 170 nM | logD [2]: 1.93 | IC50 (Acetyl-CoA carboxylase 2): 33 nM | microsomal CLint [3]: 25 µL/min/mg
